Test results reported in US5942511A, “Allylthiopyridazine derivatives and process for preparing the same” (Kwon; Soon Kyoung, priority 1998, dated 1999).

Key:
[1] = induced by carbon tetrachloride and acetaminophen; cited from earlier work
hepatocyte necrosis [2] = experiment: Effect of inhibiting hepatic disorder induced by acetaminophen (APAP): hepatocyte necrosis; format: in vivo, male ICR mice; details: APAP model, 50 mg/kg per day oral, 3 days; for Degree of necrosis 0: number of animals: grade 0 no lesion; for Degree of necrosis 1: number of animals: grade 1 mild lesion; for Degree of necrosis 2: number of animals: grade 2 moderate lesion; for Degree of necrosis 3: number of animals: grade 3 severe lesion; for Degree of necrosis 4: number of animals: grade 4 diffused lesion
Method: (§1) In the present invention, the inhibiting effect of the compound of formula (I) on hepatic disorder, induced by carbon tetrachloride and acetaminophene, was determined after oral administration of the novel compound according to the present invention to mouse as the experimental animal for 3 days. The degree of liver damage in respective experimental animal was determined by measuring ALT and LDH levels in blood [see, Biol. Pharm. Bull., 20, 4, 381-385, 1997; Toxicology and Applied Pharmacology, 95, 1-11, 1988], and further by removing the liver, staining (×100) the liver with hematoxylin and eosin and then observing with microscope to examine the degree of hepatocyte necrosis.
(§2) In addition, liver was removed from the test animals, stained (×100) with hematoxylin and eosin and then observed by microscope. The degree of hepatocyte necrosis was evaluated according to the following 5 grades: 0 no lesion, 1 mild lesion, 2 moderate lesion, 3 severe lesion and 4 diffused lesion.
(§3) The liver protective effect of the compound according to the present invention was examined according to the known method [see, Wang et al., Toxicology and applied Pharmacology, 136, 146-154, 1996] as specifically described below.
(§4) The compound according to the present invention was suspended in corn oil and the resulting suspension was administered in an amount of 1.0 ml/kg. Each group was composed of 3 to 10 male ICR mice (5-6 weeks) and the test compound was orally administered for 3 days in the dose of 50 mg/kg per day. After 2 hours from the last administration of the test compound, acetaminophen was orally administered in an amount of 0.5 g/kg. In this experiment, silymarin was used as the comparative compound. After 22 hours from the administration of acetaminphen, blood was taken from the individual test animal and ALT and LDH values in serum were determined. The results as obtained are described in the following Tables 4 and 5 (in which ALT and LDH values are represented by mean±SE). In addition, liver was removed from the test animals and then observed according to the same manner as Experiment 3 to evaluate the degree of hepatocyte necrosis.

[3] = tested on: serum ALT (alanine aminotransferase); experiment: Effect of inhibiting hepatic disorder induced by carbon tetrachloride: serum ALT; format: in vivo, male ICR mice; details: CCl4 100 μl/kg i.p., compound 50 mg/kg per day oral, 3 days; for Serum ALT value: mean±SE
Source text: First, the effects of allylthiopyridazine derivative of formula (I) for prevention and treatment of hepatic diseases was examined using carbon tetrachloride model and acetaminophen model.
Carbon tetrachloride model [see, Philippe letteron et al., Biochemical Pharmacology, 39, 12, 2027-2034, 1990] is most frequently used as an experimental model of hepatic disorder and has been established on the basis of the fact that carbon tetrachloride is converted into trichloromethyl free radical (CCl3 .), a highly toxic metabolite, by the action of cytochrome P-450 in body. This metabolite strongly binds with thiol group of liver microsomal membrane protein to produce a lipid radical, which is then converted into peroxy radical in the presence of oxygen, thereby stimulating the peroxidation reaction of membrane lipid. That is, carbon tetrachloride inhibits protein biosynthesis in liver, increases blood ALT (alanine aminotransferase) and causes centrilobular necrosis of liver cells.
as §1
Effect of inhibiting hepatic disorder induced by carbon tetrachloride
(§5) The liver protective effect of the compound according to the present invention was examined according to the known method [see, Philippe letteron et al., Biochemical Pharmacology, 39, 12, 2027-2034, 1990] as specifically described below.
(§6) The compound according to the present invention was suspended in corn oil and the resulting suspension was administered in an amount of 1.0 ml/kg. Each group was composed of 3 to 10 male ICR mice (5-6 weeks) and the test compound was orally administered for 3 days in the dose of 50 mg/kg per day. After the test compound was administered, carbon tetrachloride was intraperitoneally injected in an amount of 100 μl/kg. In this experiment, silymarin was used as the comparative compound. After 24 hours from administration of carbon tetrachloride, blood was taken from the test animal by cardiac perforation and ALT value in serum was determined. The result obtained is described in the following Table 2 (in which ALT value is represented by mean±SE). The ALT unit in serum was determined by centrifuging blood to separate serum as the supernatant, and then the separated serum were subjected to Reitman-Frankel method by means of a commercially available kit (BC101-O,P, Youngdong Pharm.). That is, DL-alanine and α-ketoglutarate were used as the substrate solution to which 2,4-dinitrophenylhydrazine was added to produce hydrazone. Then, sodium hydroxide was added to hydrazone to colorize and then the absorbance was measured at 505 nm.

[4] = tested on: serum ALT (alanine aminotransferase); experiment: Effect of inhibiting hepatic disorder induced by acetaminophen (APAP): serum ALT; format: in vivo, male ICR mice; details: APAP 0.5 g/kg oral, compound 50 mg/kg per day oral, 3 days; for Serum ALT value: mean±SE
Source text: (§7) In addition, the liver protective effects of the compound of the present invention can also be confirmed by acetaminophen model [see, Wang et al., Toxicology and applied Pharmacology, 136, 146-154, 1996]. Acetaminophen is rapidly metabolized by CYP2E1 to cause hepatic toxicity, which results in structural and functional change in liver cellular membrane, causing necrosis in hepatic lobule, an increase in blood ALT and LDH (lactate dehydrogenase) levels.
as §1
(§8) Effect of inhibiting hepatic disorder induced by acetaminophen (APAP)
as §3, §4

[5] = tested on: serum LDH (lactate dehydrogenase); experiment: Effect of inhibiting hepatic disorder induced by acetaminophen (APAP): serum LDH; format: in vivo, male ICR mice; details: APAP 0.5 g/kg oral, compound 50 mg/kg per day oral, 3 days; for Serum LDH value: mean±SE
Source text: as §7, §1, §8, §3, §4

hepatocyte necrosis [6] = experiment: Effect of inhibiting hepatic disorder induced by carbon tetrachloride: hepatocyte necrosis; format: in vivo, male ICR mice; details: CCl4 model, 50 mg/kg per day oral, 3 days; for Degree of necrosis 1: number of animals: grade 1 mild lesion; for Degree of necrosis 2: number of animals: grade 2 moderate lesion; for Degree of necrosis 3: number of animals: grade 3 severe lesion; for Degree of necrosis 4: number of animals: grade 4 diffused lesion
Method: as §1, §5, §6, §2

radiation damage = experiment: Protective effect against radiation damage: survival of mouse; format: in vivo, male ICR mouse; details: 100 mg/kg per day, 2 days
Source text: Further, the present inventors have confirmed the protective effect of allylthiopyridazine derivative according to the present invention against radiation by administering the active compound to mouse, irradiating the radiation of 8 or 9Gy and, after a certain period, measuring the survival rate of mouse. For example, the survival rate during 30 days of 8Gy radiation can be seen from FIG. 3, and the specific experimental result is described in the following Table 7. Specifically, when 8Gy radiation is used, the survival rate during 30 days in the groups which only radiation was used was merely 48%, whereas the survival rates during 30 days in the groups to which the compounds of Examples 4 and 8 are previously administered were 76% and 70%, respectively. Therefore, it can be noted that the protective effect of the compound according to the present invention against radiation is proven to be a very significant novel discovery.
Protective effect against radiation damage
In order to confirm the protective effect of the compound of the present invention against radiation damage, the following test was conducted.
Male ICR mouse was bred in a chamber to which sterile atmosphere is supplied, at inner temperature 20-23° C. and relative humidity 50% with sufficient water and feed. When the weight of mouse reached 20-25 g, the compound of the present invention was suspended in corn oil and then administered for 2 days in the dose of 100 mg/kg (1 ml/kg) per day. After 3 hours from the last administration of the test compound, 8 or 9 Gy radiation was irradiated to mouse. Specifically, mouse was introduced into a box made of acryl which limited his movement, and then radiation produced from ^60 Co radioactive material was irradiated to whole body at the irradiating rate of 115.8 cGy/min. The dimension of acryl box was 31×31 cm^2, which is the same as the irradiating area of radiation. After 7 days of irradiation of γ-ray, mouse was sacrificed to conduct the histopathologic observation. The result of examining the survival rate during 30 days of irradiation of 8 Gy radiation is shown in FIG. 3, and the result of determining the survival rate after a certain period (10, 13 or 30 days) from irradiation of 8 or 9 Gy radiation is described in the following Table 7.

[7] = literature; cited from earlier work
[8] = tested on: microsomal epoxide hydrolase (mEH) and glutathione S-transferases (GST); details: literature; cited from earlier work
[9] = literature; cited from earlier work; remark: listed apart in the source

| Compound | Degree of necrosis 0: number of animals (hepatocyte necrosis [2]) | Degree of necrosis 1: number of animals (hepatocyte necrosis [2]) | Degree of necrosis 2: number of animals (hepatocyte necrosis [2]) | Degree of necrosis 3: number of animals (hepatocyte necrosis [2]) | Degree of necrosis 4: number of animals (hepatocyte necrosis [2]) | Inhibiting rate (serum ALT) [3] | Serum ALT value [3] | Inhibiting rate (serum ALT) [4] | Serum ALT value [4] | Inhibiting rate (serum LDH) [5] | Serum LDH value [5] | Degree of necrosis 1: number of animals (hepatocyte necrosis [6]) | Degree of necrosis 2: number of animals (hepatocyte necrosis [6]) | Degree of necrosis 3: number of animals (hepatocyte necrosis [6]) | Degree of necrosis 4: number of animals (hepatocyte necrosis [6]) | effect on oncogenesis and hepatotoxicity of 1,2-dimethylhydrazine [7] | also measured |
| --- | --- | --- | --- | --- | --- | --- | --- | --- | --- | --- | --- | --- | --- | --- | --- | --- | --- |
| CC(C)OC(=O)C(C(=O)OC(C)C)=C1SC=CS1 [malotilate] | – | – | – | – | – | – | – | – | – | – | – | – | – | – | – | – | effect of preventing and treating hepatic diseases [1]: good effect of preventing and treating hepatic diseases induced by carbon tetrachloride and acetaminophen |
| C=CCSc1ccc(OCC)nn1 [Example 8] | 7 | 0 | 2 | 0 | 0 | 33% | 6123 ± 2230 KA unit/l | 99% | 98 ± 26 KA unit/l | 95.6% | 1193 ± 546 KA unit/l | 1 | 2 | 1 | 3 | – | survival number (radiation damage; 10 days of 9 Gy radiation): 17/23; survival rate (radiation damage; 10 days of 9 Gy radiation): 74%; survival number (radiation damage; 13 days of 9 Gy radiation): 5/23; survival rate (radiation damage; 13 days of 9 Gy radiation): 22%; survival number (radiation damage; 30 days of 8 Gy radiation): 16/23; survival rate (radiation damage; 30 days of 8 Gy radiation): 70% |
| C=CCS[S+]([O-])CC=C (stereo not drawn) [allicin] | – | – | – | – | – | – | – | – | – | – | – | – | – | – | – | inhibiting oncogenesis due to 1,2-dimethylhydrazine and protecting liver from hepatotoxicity of 1,2-dimethylhydrazine | – |
| C=CCSCC=C [diallyl sulfide] | – | – | – | – | – | – | – | – | – | – | – | – | – | – | – | inhibiting oncogenesis due to 1,2-dimethylhydrazine and protecting liver from hepatotoxicity of 1,2-dimethylhydrazine | – |
| Cc1c(-c2cnccn2)ssc1=S [Oltipraz] | – | – | – | – | – | – | – | – | – | – | – | – | – | – | – | – | expression rate of mEH and GST [8]: increases the expression rate of microsomal epoxide hydrolase (mEH) and glutathione S-transferases (GST); protection of cellular tissue from radiation [9]: protect the cellular tissue from radiation |
| C=CCSc1ccc(OCCC)nn1 [Example 12, 3-(n-propoxy)-6-allylthiopyridazine] | 0 | 1 | 1 | 1 | 3 | 40% | 5585 ± 705 KA unit/l | 25% | 2749 ± 1352 KA unit/l | 59% | 5480 ± 2346 KA unit/l | 0 | 2 | 3 | 4 | – | Degree of necrosis 0: number of animals (hepatocyte necrosis [6]; grade 0 no lesion): 0 |
